Results taken from US20250032788A1, “COMPOSITIONS AND METHODS FOR TREATING WITH A COMBINATION OF ALTERNATING ELECTRIC FIELDS AND DNA-DEPENDENT PROTEIN KINASE INHIBITORS” (NOVOCURE GMBH, priority 2023, published 2025).
Entries after “also recorded” stand apart in the source; their conditions may differ.

Experiments:
Type in all cases: cell-based
A549 cells [1] = test: Concomitant TTFields and inhibitor: cell count, colony formation, annexin V/7AAD apoptosis, A549; conditions: for interaction of co-application of TTFields and inhibitor: summary statement
Experimental: (§1) In these experiments 15,000 of A549 cells/dish were seeded in inovitro dishes and incubated overnight to allow cell attachment. The cells were then treated with TTFields (0.97V/cm RMS, 150 kHz, 72 h), alone or with the addition of different concentrations of nedisertib, Efficacy was measured by analyzing cell count by flow cytometer (Guava easy Cyte HT), colony formation, and apoptosis induction by annexin V/7AAD staining. The overall effect was calculated by multiplying cell count with colony formation.
as §1, with “The cells were then treated with TTFields (0.97V/cm RMS, 150 kHz, 72 h), alone or with the addition of different concentrations of nedisertib,” left out

H1299 cells [2] = test: Inhibitor titration, cell count by flow cytometer, H1299; conditions: 72 hr, no TTFields
Experimental: (§2) This work was began with the titration of nedisertib. For these experiments 15,000 of A549 or H1299 cells/dish were seeded in 12-well plate and incubated overnight to allow cell attachment. The cells were then treated with various concentrations of nedisertib for 72 hr. The remaining cells were counted by flow cytometer (Guava easyCyte HT) (FIG. 11). […] For these experiments 15,000 of A549 or H1299 cells/dish were seeded in 12-well plates and incubated overnight to allow cell attachment. […] The remaining cells were counted by flow cytometer (Guava easy Cyte HT).

A549 cells [3] = test: Inhibitor titration, cell count by flow cytometer, A549; conditions: 72 hr, no TTFields
Experimental: as §2

H1299 cells [4] = test: Concomitant TTFields and inhibitor: cell count, colony formation, annexin V/7AAD apoptosis, H1299; conditions: TTFields 0.97 V/cm RMS, 150 kHz, 72 h
Experimental: as §1, with “H1299” for “A549”, “(0.97 V/cm” for “(0.97V/cm”, “KHz,” for “kHz,”, “nedisertib.” for “nedisertib,”
as §1, with “H1299” for “A549”, “The cells were then treated with TTFields (0.97V/cm RMS, 150 kHz, 72 h), alone or with the addition of different concentrations of nedisertib,” left out

H1299 cells [5] = test: Cell cycle distribution by flow cytometer, H1299; conditions: 150 kHz, different times
Experimental: (§3) Similar results to the A549 cells were obtained in the H1299 cell line, where the concomitant treatment results in G1 arrest (FIG. 15). In these experiments 15,000 of H1299 cells/dish were seeded in inovitro dishes and incubated overnight to allow cell attachment. The cells were then treated with TTFields (0.97 V/cm RMS. 150 kHz) for different times, alone or with the addition of 6.25 μM of nedisertib. Cell cycle distribution was performed for each treatment alone and for the concomitant treatments using the Cytek® Northern Lights™ flow cytometer.
as §3, with “results” for “results to the A549 cells”, “20).” for “15).”, “The cells were then treated with TTFields (0.97 V/cm RMS. 150 kHz) for different times, alone or with the addition of 6.25 μM of nedisertib.” left out

A549 cells [6] = test: Cell cycle distribution by flow cytometer, A549; conditions: for change in the sub G1 phase / cell cycle distribution, concomitant treatment with TTFields: 150 kHz; for cell cycle distribution, concomitant treatment with TTFields: different times
Experimental: as §3, with “The mechanism of action of” for “Similar results to the A549 cells were obtained in the H1299 cell line, where”, “was investigated and cell cycle analysis was performed.” for “results in G1 arrest (FIG. 15).”, “A549” for “H1299”, “6” for “6.25”, “nedisertib (FIG. 14).” for “nedisertib.”
In these experiments, 15,000 of A549 cells/dish were seeded in inovitro dishes and incubated overnight to allow cell attachment. […] Cell cycle distribution was performed for each treatment alone and for the concomitant treatments using the Cytek® Northern Lights™ flow cytometer.

DNA-PK = biological target: T1, DNA-PK (Homo sapiens, UniProt P78527); test: Western blot of DNA-PK autophosphorylation (pS2056) after radiation in primary glioma stem-like cells; conditions: VX984 250 nM, radiation 5 Gy, CX18 edge 2, CX18 core 1, OX5 edge and OX5 core
T1 construct: primary glioma stem-like cells (GSCs) treated with DNA-PKi or IR alone or in combination; endogenous in cells; host or cells: CX18 core 1 / edge 2 and OX5 core / edge primary glioma stem-like cells

[7] = system: CX18 edge 2, CX18 core 1, OX5 edge and OX5 core primary glioblastoma cells; test: Clonogenic survival assay with TTFields, VX984 and radiation in 3D Alvetex culture; conditions: VX984 250 nM, 1 hr pre-treatment, TTFields 200 kHz, 72 hr, radiation, n=3
Experimental: Clonogenic survival assays of cells pre-treated with VX984 (250 nM, 1 hr) before TTFields incubation (200 kHz, 72 hr) in CX18 edge 2, CX18 core 1, OX5 edge and OX5 core cells. n=3, statistical significance denoted through ANOVA one-way analysis. Representative images of cell death post TTFields treatment in CX18 edge 2), CX18 core 2, OX5 edge and OX5 core cells.
FIG. 6 is a table with a summary of the survival data of TTFields alongside VX984 and radiation. The average intratumoural survival fractions (INTRA); OX5 core vs edge and CX18 core vs edge and the average intertumoural survival fraction; OX5 INTRA vs CX18 INTRA are shown. Bliss indices are calculated to ascertain if cell death is synergistic or addictive using the survival fraction product of DMSO+TTF and Combo−TTF as a ratio against Combo+TTF. Ratios<1.1 are seen as additive cell death whereas>1.1 is synergistic.

[8] = TTFields 0.97 V/cm RMS, 150 kHz, 72 h, different concentrations
[9] = 0.11 μM CC-115, TTFields 0.97 V/cm RMS
[10] = 6 μM nedisertib, TTFields 0.97 V/cm RMS

CCN1C(=O)CNc2ncc(-c3ccc(-c4nc[nH]n4)nc3C)nc21 [CC-115]
levels of apoptosis at the concentration used for cell cycle analysis (A549 cells [1]; 0.11 μM CC-115): low levels of apoptosis | overall effect (cell count multiplied by colony formation) of inhibitor with TTFields (A549 cells [1]; [8]): synergistically enhanced; also recorded: enhance | interaction of co-application of TTFields and inhibitor (A549 cells [1]): synergistic interaction | IC50 (remaining cells counted) (H1299 cells [2]): much lower than that of nedisertib; also recorded: higher than that of A549 | IC50 (remaining cells counted) (A549 cells [3]): much lower than that of nedisertib | overall effect (cell count multiplied by colony formation) of inhibitor with TTFields (H1299 cells [4]; different concentrations): additive overall effect; also recorded: enhance | cell cycle distribution, concomitant treatment with TTFields (H1299 cells [5]; 0.3125 μM CC-115, TTFields 0.97 V/cm RMS): G1 arrest; also recorded: promotes cell cycle arrest | change in the sub G1 phase (A549 cells [6]; [9]): don't see a significant change | cell cycle distribution, concomitant treatment with TTFields (A549 cells [6]; [9]): induced G1 arrest and a decreased number of s-phase cells; also recorded: promotes cell cycle arrest

COc1ccc([C@@H](O)c2cc(-c3ncnc4cc(N5CCOCC5)ccc34)c(F)cc2Cl)nn1 [Nedisertib]
levels of apoptosis at the concentration used for cell cycle analysis (A549 cells [1]; 6 μM nedisertib): low levels of apoptosis | apoptotic effect of the concomitant treatment (annexin V/7AAD) (A549 cells [1]; TTFields 0.97 V/cm RMS, 150 kHz, 72 h): only significant in the higher doses | cytotoxic effect (cell count) of inhibitor with TTFields (A549 cells [1]; [8]): synergistically enhanced; also recorded: enhance | overall effect (cell count multiplied by colony formation) of inhibitor with TTFields (A549 cells [1]; [8]): synergistically enhanced; also recorded: enhance | interaction of co-application of TTFields and inhibitor (A549 cells [1]): synergistic interaction | IC50 (remaining cells counted) (H1299 cells [2]): higher than that of A549 | apoptotic effect of the concomitant treatment (annexin V/7AAD) (H1299 cells [4]): only significant in the higher doses | interaction of concomitant treatment of TTFields and inhibitor (H1299 cells [4]): additive interaction | cytotoxic effect (cell count) of inhibitor with TTFields (H1299 cells [4]; different concentrations): enhance | overall effect (cell count multiplied by colony formation) of inhibitor with TTFields (H1299 cells [4]; different concentrations): enhance | interaction of concomitant treatment of TTFields and inhibitor (H1299 cells [4]; listed as nedisertib): additive effect | cell cycle distribution, concomitant treatment with TTFields (H1299 cells [5]; 6.25 μM nedisertib, TTFields 0.97 V/cm RMS): G1 arrest; also recorded: promotes cell cycle arrest | change in the sub G1 phase (A549 cells [6]; [10]): don't see a significant change | cell cycle distribution, concomitant treatment with TTFields (A549 cells [6]; [10]): highest level of arrest; also recorded: promotes cell cycle arrest | cell cycle distribution, inhibitor alone (A549 cells [6]; 6 μM nedisertib, at most time points): induce G1 arrest and a decreased number of s-phase cells

VX984
pDNAPK (pS2056) signal in response to radiation (DNA-PK): depletion of pDNAPK (pS2056) signal | glioblastoma cell death (clonogenic survival) [7]: enhances glioblastoma cell death by radiosensitisation
